Key:
EGFR G724S T790M = EGFR G724S T790M (Homo sapiens, UniProt P00533, G724S/T790M); assay: Ba/F3 cell viability, Cell Titer Glo; settings: read-out: IC50 Values; Ba/F3 cells expressing EGFR G724S T790M, 72 hours
Experimental: (§1) Cell viability was determined by the Cell Titer Glo assay.
(§2) Briefly, stable Ba/F3 cell lines were generated by retroviral transduction of Ba/F3 cell line for 12 hours. […] Three days after transduction, 2 μg/ml puromycin (Invitrogen) was added to the RPMI media. Cell lines were then grown in the absence of IL-3 for two weeks and cell viability was assessed every three days using the Cell Titer Glo assay (Progema).
(§3) Briefly, 2000-3000 cells per well were plated in 384-well plates (Greiner Bio-One) in technical triplicate. Cells were treated with seven different concentrations of tyrosine kinase inhibitors or vehicle alone at a final volume of 40 μL per well. After 3 days, 11 μL of Cell Titer Glo was added to each well. Plates were shaken for 15 minutes, and bioluminescence was determined using a FLUOstar OPTIMA multi-mode micro-plate reader (BMG LABTECH). Bioluminescence values were normalized to DMSO treated cells, and normalized values were plotted in GraphPad Prism using non-linear regression fit to normalized data with a variable slope.

EGFR L858R T790M L718V = EGFR L858R T790M L718V (Homo sapiens, UniProt P00533, L718V/L858R/T790M); assay: Ba/F3 cell viability, Cell Titer Glo; settings: read-out: IC50 Values; Ba/F3 cells expressing EGFR L858R T790M L718V, 72 hours
Experimental: as §1, §2, §3

EGFR T790M = EGFR T790M (Homo sapiens, UniProt P00533, T790M); assay: Ba/F3 cell viability, Cell Titer Glo; settings: read-out: IC50 Values; Ba/F3 cells expressing EGFR T790M, 72 hours
Chain of EGFR T790M (P00533 25-1210 T790M): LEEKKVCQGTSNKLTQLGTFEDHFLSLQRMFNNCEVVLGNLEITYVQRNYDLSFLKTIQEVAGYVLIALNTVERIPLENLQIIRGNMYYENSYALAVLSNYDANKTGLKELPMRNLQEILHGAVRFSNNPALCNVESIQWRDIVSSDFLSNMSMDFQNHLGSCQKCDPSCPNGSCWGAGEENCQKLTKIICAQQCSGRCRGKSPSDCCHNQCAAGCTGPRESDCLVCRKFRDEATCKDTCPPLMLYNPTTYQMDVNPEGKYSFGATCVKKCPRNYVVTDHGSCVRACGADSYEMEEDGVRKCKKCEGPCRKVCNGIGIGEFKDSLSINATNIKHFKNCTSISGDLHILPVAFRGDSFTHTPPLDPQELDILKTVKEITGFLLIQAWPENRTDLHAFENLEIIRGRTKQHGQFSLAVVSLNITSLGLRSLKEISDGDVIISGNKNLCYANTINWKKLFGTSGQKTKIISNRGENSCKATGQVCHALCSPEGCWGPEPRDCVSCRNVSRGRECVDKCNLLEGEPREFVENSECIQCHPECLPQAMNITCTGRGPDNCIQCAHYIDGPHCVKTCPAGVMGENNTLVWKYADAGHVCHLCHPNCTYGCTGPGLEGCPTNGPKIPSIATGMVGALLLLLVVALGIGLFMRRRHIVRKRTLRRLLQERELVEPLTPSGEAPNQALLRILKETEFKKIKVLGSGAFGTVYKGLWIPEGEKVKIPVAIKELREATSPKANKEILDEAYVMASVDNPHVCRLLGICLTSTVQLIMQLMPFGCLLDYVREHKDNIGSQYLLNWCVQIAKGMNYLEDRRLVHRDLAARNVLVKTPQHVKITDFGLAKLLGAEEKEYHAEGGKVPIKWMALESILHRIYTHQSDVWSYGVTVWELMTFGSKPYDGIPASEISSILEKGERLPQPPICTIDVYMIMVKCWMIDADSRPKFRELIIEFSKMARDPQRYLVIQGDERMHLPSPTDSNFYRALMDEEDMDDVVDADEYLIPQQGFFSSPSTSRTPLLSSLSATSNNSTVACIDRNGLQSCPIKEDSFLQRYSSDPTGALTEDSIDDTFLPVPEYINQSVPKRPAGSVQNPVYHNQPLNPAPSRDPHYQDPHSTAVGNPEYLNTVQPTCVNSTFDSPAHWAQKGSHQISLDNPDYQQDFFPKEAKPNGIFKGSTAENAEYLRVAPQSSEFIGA
Experimental: as §1, §2, §3

EGFR L858R/T790M = EGFR L858R/T790M (Homo sapiens, UniProt P00533, L858R/T790M); assay: Ba/F3 cell viability, Cell Titer Glo; settings: read-out: IC50 Values; Ba/F3 cells expressing EGFR L858R/T790M, 72 hours
Experimental: as §1, §2, §3

EGFR L858R T790M L792H = EGFR L858R T790M L792H (Homo sapiens, UniProt P00533, L792H/L858R/T790M); assay: Ba/F3 cell viability, Cell Titer Glo; settings: read-out: IC50 Values; Ba/F3 cells expressing EGFR L858R T790M L792H, 72 hours
Experimental: as §1, §2, §3

EGFR L858R/T790M/L718Q = EGFR L858R/T790M/L718Q (Homo sapiens, UniProt P00533, L718Q/L858R/T790M); assay: Ba/F3 cell viability, Cell Titer Glo; settings: read-out: IC50 Values; Ba/F3 cells expressing EGFR L858R/T790M/L718Q, 72 hours
Chain of EGFR L858R/T790M/L718Q (P00533 25-1210 L718Q/T790M/L858R): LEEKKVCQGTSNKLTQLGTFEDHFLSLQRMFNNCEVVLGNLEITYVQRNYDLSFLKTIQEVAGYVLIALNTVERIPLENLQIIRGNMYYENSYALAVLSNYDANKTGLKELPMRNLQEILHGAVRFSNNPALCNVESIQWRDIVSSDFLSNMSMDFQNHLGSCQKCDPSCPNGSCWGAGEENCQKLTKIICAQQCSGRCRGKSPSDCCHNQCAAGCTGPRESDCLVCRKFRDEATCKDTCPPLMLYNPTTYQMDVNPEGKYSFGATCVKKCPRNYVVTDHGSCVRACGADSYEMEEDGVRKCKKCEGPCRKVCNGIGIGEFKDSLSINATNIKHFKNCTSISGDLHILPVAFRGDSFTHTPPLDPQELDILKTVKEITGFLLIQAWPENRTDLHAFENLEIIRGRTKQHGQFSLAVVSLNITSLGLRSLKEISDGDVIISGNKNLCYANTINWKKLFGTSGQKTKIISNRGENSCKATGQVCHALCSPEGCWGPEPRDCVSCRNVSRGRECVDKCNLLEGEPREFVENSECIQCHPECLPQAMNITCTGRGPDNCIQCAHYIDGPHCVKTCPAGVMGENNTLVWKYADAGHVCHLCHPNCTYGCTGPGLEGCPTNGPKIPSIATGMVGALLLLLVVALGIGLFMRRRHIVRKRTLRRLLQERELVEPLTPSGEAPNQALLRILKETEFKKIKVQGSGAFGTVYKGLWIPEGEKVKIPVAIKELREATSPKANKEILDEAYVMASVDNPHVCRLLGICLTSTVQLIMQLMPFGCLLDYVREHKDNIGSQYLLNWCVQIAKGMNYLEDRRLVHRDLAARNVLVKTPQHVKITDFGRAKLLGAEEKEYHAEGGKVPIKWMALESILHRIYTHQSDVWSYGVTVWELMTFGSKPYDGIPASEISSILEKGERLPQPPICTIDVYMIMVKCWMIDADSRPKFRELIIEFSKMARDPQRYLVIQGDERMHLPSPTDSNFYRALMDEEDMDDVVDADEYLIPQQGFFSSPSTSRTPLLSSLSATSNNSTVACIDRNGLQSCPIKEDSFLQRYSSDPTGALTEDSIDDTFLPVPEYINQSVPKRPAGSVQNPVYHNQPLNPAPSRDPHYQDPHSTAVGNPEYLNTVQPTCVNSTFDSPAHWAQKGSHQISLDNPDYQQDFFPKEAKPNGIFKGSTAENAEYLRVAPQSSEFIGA
Experimental: as §1, §2, §3

EGFR L858R T790M/C797S = EGFR L858R T790M/C797S (Homo sapiens, UniProt P00533, C797S/L858R/T790M); assay: Ba/F3 cell viability, Cell Titer Glo; settings: read-out: IC50 Values; Ba/F3 cells expressing EGFR L858R T790M/C797S, 72 hours
Experimental: as §1, §2, §3

EGFR Ex19delT790M = EGFR Ex19delT790M (Homo sapiens, UniProt P00533, DEL746-750/T790M); assay: Ba/F3 cell viability, Cell Titer Glo; settings: read-out: IC50 Values; Ba/F3 cells expressing EGFR Ex19delT790M, 72 hours
Chain of EGFR Ex19delT790M (P00533 with tags, fused parts or gaps DEL746-750/T790M): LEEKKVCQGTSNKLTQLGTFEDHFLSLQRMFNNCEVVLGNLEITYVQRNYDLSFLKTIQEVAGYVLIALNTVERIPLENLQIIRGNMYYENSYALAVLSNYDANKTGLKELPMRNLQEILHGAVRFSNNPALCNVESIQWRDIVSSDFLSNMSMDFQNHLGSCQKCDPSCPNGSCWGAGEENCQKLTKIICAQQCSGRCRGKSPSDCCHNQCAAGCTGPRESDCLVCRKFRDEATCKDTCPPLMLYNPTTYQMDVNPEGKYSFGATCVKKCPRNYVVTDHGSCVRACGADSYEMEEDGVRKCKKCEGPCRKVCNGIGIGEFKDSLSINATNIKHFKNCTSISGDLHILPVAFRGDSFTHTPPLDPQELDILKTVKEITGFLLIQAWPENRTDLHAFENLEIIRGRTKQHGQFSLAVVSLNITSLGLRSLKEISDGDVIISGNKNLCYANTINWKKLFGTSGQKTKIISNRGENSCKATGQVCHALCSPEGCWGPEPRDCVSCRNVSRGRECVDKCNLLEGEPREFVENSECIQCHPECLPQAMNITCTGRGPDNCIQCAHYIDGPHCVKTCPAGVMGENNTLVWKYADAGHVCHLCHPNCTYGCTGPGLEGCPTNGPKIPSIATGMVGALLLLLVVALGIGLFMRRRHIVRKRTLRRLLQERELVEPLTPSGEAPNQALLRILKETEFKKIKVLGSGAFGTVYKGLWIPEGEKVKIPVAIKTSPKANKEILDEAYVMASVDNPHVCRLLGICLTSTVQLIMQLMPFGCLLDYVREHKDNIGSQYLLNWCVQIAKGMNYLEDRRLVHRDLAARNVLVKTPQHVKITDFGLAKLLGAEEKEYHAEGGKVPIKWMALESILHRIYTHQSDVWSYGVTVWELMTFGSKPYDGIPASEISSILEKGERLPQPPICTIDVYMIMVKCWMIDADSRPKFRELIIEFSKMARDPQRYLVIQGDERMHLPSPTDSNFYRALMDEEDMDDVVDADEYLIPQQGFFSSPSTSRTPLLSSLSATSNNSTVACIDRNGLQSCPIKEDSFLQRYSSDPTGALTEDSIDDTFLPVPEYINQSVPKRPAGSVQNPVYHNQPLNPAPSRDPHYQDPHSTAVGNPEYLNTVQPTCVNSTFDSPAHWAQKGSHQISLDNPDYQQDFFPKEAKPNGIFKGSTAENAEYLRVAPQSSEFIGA
Experimental: as §1, §2, §3

EGFR Ex19delT790M L718V = EGFR Ex19delT790M L718V (Homo sapiens, UniProt P00533, DEL746-750/L718V/T790M); assay: Ba/F3 cell viability, Cell Titer Glo; settings: read-out: IC50 Values; Ba/F3 cells expressing EGFR Ex19delT790M L718V, 72 hours
Chain of EGFR Ex19delT790M L718V (P00533 with tags, fused parts or gaps L718V/DEL746-750/T790M): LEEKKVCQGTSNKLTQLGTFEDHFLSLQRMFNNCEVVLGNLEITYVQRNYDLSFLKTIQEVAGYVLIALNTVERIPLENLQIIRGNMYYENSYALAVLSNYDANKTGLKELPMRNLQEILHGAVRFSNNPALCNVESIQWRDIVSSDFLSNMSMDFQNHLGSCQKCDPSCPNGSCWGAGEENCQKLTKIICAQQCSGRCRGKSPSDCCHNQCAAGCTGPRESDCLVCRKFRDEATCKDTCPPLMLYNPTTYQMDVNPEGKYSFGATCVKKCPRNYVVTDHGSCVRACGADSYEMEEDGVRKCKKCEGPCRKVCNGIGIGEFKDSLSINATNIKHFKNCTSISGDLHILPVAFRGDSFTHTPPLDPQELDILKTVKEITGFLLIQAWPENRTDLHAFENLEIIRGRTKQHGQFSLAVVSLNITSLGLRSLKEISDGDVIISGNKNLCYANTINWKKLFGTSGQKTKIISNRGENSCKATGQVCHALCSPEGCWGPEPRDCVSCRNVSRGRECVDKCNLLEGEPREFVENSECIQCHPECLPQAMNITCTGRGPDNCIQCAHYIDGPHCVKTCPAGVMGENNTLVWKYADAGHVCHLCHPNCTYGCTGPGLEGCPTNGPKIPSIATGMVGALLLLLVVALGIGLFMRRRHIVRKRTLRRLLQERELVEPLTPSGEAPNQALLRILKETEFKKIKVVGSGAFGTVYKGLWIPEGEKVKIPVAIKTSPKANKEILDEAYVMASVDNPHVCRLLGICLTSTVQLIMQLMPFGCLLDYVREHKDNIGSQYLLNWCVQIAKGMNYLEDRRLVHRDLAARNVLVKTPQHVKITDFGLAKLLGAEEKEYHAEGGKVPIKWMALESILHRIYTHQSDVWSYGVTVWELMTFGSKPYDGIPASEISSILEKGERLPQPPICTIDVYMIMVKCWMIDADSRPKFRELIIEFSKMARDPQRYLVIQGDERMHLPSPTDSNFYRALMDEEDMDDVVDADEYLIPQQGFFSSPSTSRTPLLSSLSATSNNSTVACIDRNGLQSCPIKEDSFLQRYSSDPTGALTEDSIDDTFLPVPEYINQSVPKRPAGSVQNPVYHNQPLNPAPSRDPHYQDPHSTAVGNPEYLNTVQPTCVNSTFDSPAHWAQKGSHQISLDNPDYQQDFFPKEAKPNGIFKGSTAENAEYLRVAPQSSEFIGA
Experimental: as §1, §2, §3

EGFR Ex19del/T790M/L792H = EGFR Ex19del/T790M/L792H (Homo sapiens, UniProt P00533, DEL746-750/L792H/T790M); assay: Ba/F3 cell viability, Cell Titer Glo; settings: read-out: IC50 Values; Ba/F3 cells expressing EGFR Ex19del/T790M/L792H, 72 hours
Experimental: as §1, §2, §3

EGFR L858R T790M V843I = EGFR L858R T790M V843I (Homo sapiens, UniProt P00533, L858R/T790M/V843I); assay: Ba/F3 cell viability, Cell Titer Glo; settings: read-out: IC50 Values; Ba/F3 cells expressing EGFR L858R T790M V843I, 72 hours
Experimental: as §1, §2, §3

EGFR G719A T790M = EGFR G719A T790M (Homo sapiens, UniProt P00533, G719A/T790M); assay: Ba/F3 cell viability, Cell Titer Glo; settings: read-out: IC50 Values; Ba/F3 cells expressing EGFR G719A T790M, 72 hours
Experimental: as §1, §3

EGFR Ex19del/T790M/G724S = EGFR Ex19del/T790M/G724S (Homo sapiens, UniProt P00533, DEL746-750/G724S/T790M); assay: Ba/F3 cell viability, Cell Titer Glo; settings: read-out: IC50 Values; Ba/F3 cells expressing EGFR Ex19del/T790M/G724S, 72 hours
Experimental: as §1, §3

EGFR S768I/T790M = EGFR S768I/T790M (Homo sapiens, UniProt P00533, S768I/T790M); assay: Ba/F3 cell viability, Cell Titer Glo; settings: read-out: IC50 Values; Ba/F3 cells expressing EGFR S768I/T790M, 72 hours
Experimental: as §1, §3

EGFR L718Q T790M = EGFR L718Q T790M (Homo sapiens, UniProt P00533, L718Q/T790M); assay: Ba/F3 cell viability, Cell Titer Glo; settings: read-out: IC50 Values; Ba/F3 cells expressing EGFR L718Q T790M, 72 hours
Experimental: as §1, §2, §3

EGFR Ex19del T790M C797S = EGFR Ex19del T790M C797S (Homo sapiens, UniProt P00533, C797S/DEL746-750/T790M); assay: Ba/F3 cell viability, Cell Titer Glo; settings: read-out: IC50 Values; Ba/F3 cells expressing EGFR Ex19del T790M C797S, 72 hours
Experimental: as §1, §2, §3

WT EGFR = WT EGFR (Homo sapiens, UniProt P00533); settings: read-out: IC50 values; Ba/F3 cells expressing WT EGFR (+10 ng/ml EGF), 72 hours
Experimental: as §1, §2, §3

Structure (SMILES): COc1cc(N2CCC(N)CC2)ccc1Nc1ncc(Cl)c(-c2c[nH]c3ccccc23)n1 [AZD3463]
- IC50 (EGFR G724S T790M): 0.695 µM
- IC50 (EGFR L858R T790M L718V): 0.662 µM
- IC50 (EGFR T790M): 1.27 µM
- IC50 (EGFR L858R/T790M): 2.4 µM
- IC50 (EGFR L858R T790M L792H): 1.55 µM
- IC50 (EGFR L858R/T790M/L718Q): 1.12 µM
- IC50 (EGFR L858R T790M/C797S): 1.27 µM
- IC50 (EGFR Ex19delT790M): 0.255 µM
- IC50 (EGFR Ex19delT790M L718V): 1.34 µM
- IC50 (EGFR Ex19del/T790M/L792H): 1.09 µM
- IC50 (EGFR L858R T790M V843I): 0.768 µM
- IC50 (EGFR G719A T790M): 1.34 µM
- IC50 (EGFR Ex19del/T790M/G724S): 1.61 µM
- IC50 (EGFR S768I/T790M): 1.73 µM
- IC50 (EGFR L718Q T790M): 1.14 µM
- IC50 (EGFR Ex19del T790M C797S): 1.44 µM
- IC50 (WT EGFR): 1.63 µM
